Assays:
salt depleted dogs = test: Blood pressure in salt depleted dogs after oral or intravenous administration; format: in vivo
[1] = dog, in vivo, po
Experimental: The following compositions comprising compound I were prepared and the bioavailability of each composition was determined in fasted dogs.
Dogs (beagle dogs, mixed sexes, weighing about 10 kg) were fasted for at least 12 hours before dosing. Food was returned after the last blood sample was collected (24 hours). Water was available at all times.
A dose equivalent to 50 or 100 milligrams of compound I was administered by mouth to each dog, followed with either 20 or 50 ml of water through a feeding tube.
Blood samples were collected at the following times: 0, 0.5, 1, 2, 3, 4, 6, 8, 12 and 24 hours. Blood samples of 3 ml volume were anti-coagulated with EDTA. The plasma was separated by centrifugation and frozen until analyzed. Blood plasma concentrations of compound I were determined by HPLC.
Bioavailability was calculated as follows: % Bioavailability=[(AUC)oral×D/(AUC) intravenous]×100. (AUC)oral and (AUC) intravenous are the areas under the curve for the plasma concentration-time profiles following oral and intravenous administration, respectively. D is defined as the intravenous vs. oral DOSE ratio. In particular, D=(DOSE)iv/DOSE)oral. The intravenous dose was 3.0 mg/kg and oral dose was about 5.0 mg/kg or about 10.0 mg/kg. The (AUC) intravenous value used corresponds to the mean value from a separate group of 6 dogs.

times more bioavailable orally as a tablet with organic polycarboxylic acid compared to tablet or powder filled capsule without the acid [1]: ≤ 7.8 times
Structure (SMILES): CC(C)C[C@H](O)[C@H](O)[C@H](CC1CCCCC1)NC(=O)[C@H](Cc1cscn1)NC(=O)[C@H](Cc1ccccc1)CS(=O)(=O)N1CCN(C)CC1 [compound I, (2S)-2-Benzyl-3-(1-methyl-piperazin-4-ylsulfonyl)propionyl-(L)-(4-Thiazolyl)Ala Amide of (2S, 3R, 4S)-2-Amino-1-cyclohexyl-3,4-dihydroxy-6-methylheptane]
effect on blood pressure (salt depleted dogs): reduces blood pressure

From patent US5523289A, “Pharmaceutical composition” (Abbott Laboratories, priority 1993, dated 1996)
